Where “and” joins values, the source holds several entries; their conditions need not be identical. Identical values can stand only once.
Experiments:
GATA4 = target: T1, GATA4 (Homo sapiens, UniProt P43694); assay: AlphaScreen DNA-binding assay, GATA4; settings: pyrrothiogatain 0 to 200 µM
T1 construct: we tried to synthesize their full-length proteins using the cell-free system; made in house; host or cells: wheat cell-free protein synthesis system (WEPRO1240 kit)
Experimental: (§1) For the protein-DNA binding assay on a 384-well AlphaPlate (Perkin Elmer), 10 μL of bait protein mixture containing 1 µL FLAG-tagged protein in AlphaScreen Buffer (100 mM Tris-HCl (pH 8.0), 150 mM NaCl, 0.1% Tween 20, and 1 mg/mL BSA) and 5 µL biotinylated oligonucleotide (0–10 µM final concentration) in AlphaScreen Buffer were dispended into the AlphaPlate. Then, the plate was incubated at 26 °C for 1 h. After incubation, 10 μL of the detection mixture containing 0.4 µg/mL Anti-DYKDDDDK antibody (1E6, Wako), 0.1 μL streptavidin-conjugated AlphaScreen donor beads, and 0.1 μL protein A-conjugated AlphaScreen acceptor beads in AlphaScreen Buffer was mixed and incubated at 26 °C for 1 h, and then, the AlphaScreen signal was detected using an EnVision device with the AlphaScreen signal detection program (PerkinElmer).
(§2) For the AlphaScreen-based chemical library screening, we used a diverse set of 9,600 synthesized chemicals established by the Drug Discovery Initiative (The University of Tokyo, Tokyo, Japan). All chemical compounds (10 mM) were dissolved in DMSO, and were pre-dispensed into a 384-well Alphaplate (250 nL/well). […] The AlphaScreen signal was detected using an EnVision device with the AlphaScreen signal detection program (PerkinElmer). […]

[1] = system: GATA3 binding to Th2 cytokine gene locus; assay: Chromatin immunoprecipitation with anti-GATA3 antibody in Th2 cells; type: cell-based, mouse; settings: naive CD4+ T cells, Th2 conditions, 80 µM, 2 days
Experimental: GATA3 has been reported to bind to Th2 cytokine gene locus, such as IL-4 VA enhancer, IL-4 intron enhancer, conserved Gata3-response element (CGRE)[26] and IL-5 promoter[27] regions in Th2 cells. We investigated whether pyrrothiogatain inhibited GATA3 binding to Th2 cytokine gene locus. Naive CD4^+ T cells were cultured under Th2 conditions in the presence or absence of 80 µM pyrrothiogatain for 2 days, and then the cells were subjected to chromatin immunoprecipitation with an anti-GATA3 antibody.
The Magna ChIP Chromatin Immunoprecipitation Kit was used for the ChIP assay according to the manufacturer’s protocol (Merck-Millipore). Anti-GATA3 antibody (Cat#AF2605, R&D systems) was used for chromatin immunoprecipitation. The specific primers for the Th2 cytokine gene locus and the Roche Universal probes were used as follows: the VA site in the IL-4 enhancer: 5′-[…]-3′ (forward), 5′-[…]-3′ (reverse), probe #4; IL-4 IE: 5′-[…]-3′ (forward), 5′-AAATCCGAAACTGA GGAGTGC-3′ (reverse), probe #75; CGRE: 5′-CTCTCCTGGTGGCGTGTT-3′ (forward), 5′-CTTTGCGCACCCTTGAAC-3′ (reverse), probe #53; and IL-5p: 5′-[…]-3′ (forward), 5′-[…]-3′ (reverse), probe #43;

[2] = system: Th2 cytokine and GATA3 mRNA; assay: Quantitative RT-PCR, naive CD4+ T cells under Th2 conditions; type: cell-based, mouse; settings: 5 days
Experimental: C57BL/6 mice were purchased from Clea (Clea Japan, Inc., Tokyo, Japan). Total CD4^+ T cells isolated from mouse spleen were prepared using a FITC anti-mouse CD4 antibody (Cat#100510, RM4–5, BioLegend) and anti-FITC-microbeads (Cat#130-097-050, Miltenyi Biotec). Naive CD4^+ T cells (CD44^low, CD62L^high) were prepared using a MojoSort Mouse CD4 T cell Isolation Kit (Cat#480033), BioLegend). Biotinylated anti-CD44 (Cat#103004, IM7) and anti-CD25 antibodies (Cat#102004, PC61) were purchased from BioLegend. CD4^+ T cells (7.5 × 10^5) were stimulated using immobilized anti-TCR-β mAb (3 µg/mL, H57–597, BioLegend) plus an anti-CD28 mAb (1.0 µg/mL, cat#40–0281, TONBO Biosciences) for 2 days, and then, the cells were further expanded under similar conditions for an additional 3 days. IL-2 conditions: IL-2 (10 ng/mL, Pepro Tech); Th2 conditions: IL-2 (10 ng/mL, Pepro Tech), IL-4 (1 ng/mL, Pepro Tech), and anti-IFN-γ mAb (2.5 µg/mL, cat#40–731, TONBO Biosciences). Th1 conditions: IL-2 (10 ng/mL, Pepro Tech), IL-12 (1 ng/mL, Pepro Tech), and anti-IL-4 mAb (2.5 µg/mL, cat#40–731, TONBO Biosciences). The cultured cells were subjected to intracellular staining, ELISA assay, and RT-PCR. All animal experiments received approval from the Ehime University Administrative Panel for Animal Care. All animal care was conducted in accordance with the guidelines of Ehime University. […]

GATA5 = target: T2, GATA5 (Homo sapiens, UniProt Q9BWX5); assay: AlphaScreen DNA-binding assay, GATA5; settings: pyrrothiogatain 0 to 200 µM
T2 construct: we tried to synthesize their full-length proteins using the cell-free system; made in house; host or cells: wheat cell-free protein synthesis system (WEPRO1240 kit)
Experimental: as §1, §2

T2 sequence (Q9BWX5 whole entry, species assumed): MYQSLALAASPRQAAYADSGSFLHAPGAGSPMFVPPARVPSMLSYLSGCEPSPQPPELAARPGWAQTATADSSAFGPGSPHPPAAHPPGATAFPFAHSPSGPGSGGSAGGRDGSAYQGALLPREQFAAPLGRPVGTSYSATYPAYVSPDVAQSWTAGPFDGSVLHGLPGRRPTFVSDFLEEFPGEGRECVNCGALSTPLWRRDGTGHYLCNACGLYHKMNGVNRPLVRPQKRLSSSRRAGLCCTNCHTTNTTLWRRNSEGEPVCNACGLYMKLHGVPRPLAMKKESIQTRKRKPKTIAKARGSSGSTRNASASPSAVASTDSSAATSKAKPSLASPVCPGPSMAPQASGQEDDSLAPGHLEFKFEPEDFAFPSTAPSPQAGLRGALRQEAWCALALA
T1 sequence (P43694 whole entry, species assumed): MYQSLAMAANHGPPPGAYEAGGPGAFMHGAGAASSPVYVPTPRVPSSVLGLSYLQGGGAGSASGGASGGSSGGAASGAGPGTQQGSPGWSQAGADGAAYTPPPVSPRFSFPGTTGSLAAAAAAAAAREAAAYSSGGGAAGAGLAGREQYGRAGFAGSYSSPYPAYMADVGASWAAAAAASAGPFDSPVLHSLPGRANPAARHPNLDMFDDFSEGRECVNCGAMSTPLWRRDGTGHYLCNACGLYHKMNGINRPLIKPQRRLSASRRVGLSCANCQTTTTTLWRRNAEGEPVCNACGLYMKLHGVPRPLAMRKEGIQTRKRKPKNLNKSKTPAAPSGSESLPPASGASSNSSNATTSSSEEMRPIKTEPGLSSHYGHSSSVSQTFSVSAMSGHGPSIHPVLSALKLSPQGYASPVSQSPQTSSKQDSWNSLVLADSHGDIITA

IC50 (GATA4): ~50 µM and 48 µM
IC50 (GATA5): ~50 µM and 49.5 µM
Structure (SMILES): Cc1ccc(C)n1-c1ccsc1C(=O)O [Pyrrothiogatain, 3-(2,5-dimethyl-1H-pyrrol-1-yl)thiophene-2-carboxylic acid]
GATA3 binding to the IL-4 VA enhancer, IL-4 intron enhancer, CGRE and IL-5 promoter regions [1]: repressed
mRNA expression of IL-4, IL-5 and IL-13 (RT-qPCR) ([2]; 30 and 80 µM): Decreased
Expression of GATA3, mRNA level [2]: not influenced

Source: PMC6874683, “Pyrrothiogatain acts as an inhibitor of GATA family proteins and inhibits Th2 cell differentiation in vitro” (Scientific Reports, 2019)
